What all share (experiment): DTP human tumour cell line panel, 48 h
Test [1] relates to SNB-19 CNS.
In test [2] the test system is SK-OV-3 ovarian.
Test [3] has as its system RXF 393 renal.
The test system of test [4] is RPMI-8226 leukemia.
Test [5] relates to HOP-92 NSCLC.
The subject of test [6] is HL-60(TB) leukemia.
For test [7], the system named is HCT-116 colon.
Test [8] relates to EKVX NSCLC.
In test [9] the test system is SK-MEL-5 melanoma.
The subject of test [10] is MALME-3M melanoma.

SMILES strings stand for the structures.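 Cultured in 96-well plates, cells were exposed to test compound for 48 hours across five concentrations. GI50 is the concentration that inhibits growth by half. At the TGI there is no net growth.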

What is called GI50 is the concentration that inhibits growth by half. A word on the TGI: it is the concentration giving total growth inhibition. A higher TGI goes with lower sensitivity of the cells.

Take `COc1c(OC[C@H](O)CN2CCOCC2)ccc2c3n(c(=NC(=O)c4cccnc4C)nc12)CCN3`: the GI50 in [1] was 5.1 µM; in test [2], 0.115 µM; in test [3], 0.192 µM; in test [4], above 50 µM; in test [5] it was 0.0637 µM; in [6], 0.0538 µM. The GI50 is 24.2 µM in test [7], 1.05 µM in test [8], above 50 µM in test [9] and 0.982 µM in test [10]. In addition, the TGI was above 50 µM in test [1]; 2.27 µM in test [2]; 2.38 µM in test [3]; above 50 µM in test [4]; 10.1 µM in test [5]; above 50 µM in test [6]. In addition, the TGI in [7], in test [8], in test [9] and in test [10] was above 50 µM in each case.
For the molecule `COc1cc(-n2cc(-c3ccc(F)cc3)[nH]c2=O)cc(OC)c1OC`, the GI50 in test [1], in test [2], in test [3], in test [4], in test [5] and in test [6] was above 100 µM throughout. Also, the GI50 in test [7], in test [8], in test [9] and in [10] was above 100 µM in each case. Further, the total growth inhibition concentration (TGI) in [1], in test [2], in [3], in test [4], in [5] and in [6] was above 100 µM in each case. The total growth inhibition concentration (TGI) in test [7], in [8], in test [9] and in [10] was above 100 µM in each case.
For the molecule `Cc1ccccc1N1C(=O)C2C=CC(n3[nH]c(=O)n(Cc4ccccc4)c3=O)CC2C1=O` (centres undefined), the TGI in [1], in test [2], in test [3], in test [4], in [5] and in test [6] was above 100 µM each time. The TGI in [7], in [8], in test [9] and in test [10] was above 100 µM each time.
Take `CCOc1ccccc1NC(=O)C(=O)CC(=O)c1sc(Nc2nnc(-c3ccc(Cl)c(Cl)c3)o2)nc1C`: the TGI in test [1], in [2], in test [3], in test [4], in test [5] and in test [6] was above 100 µM each time. The TGI in test [7], in test [8], in test [9] and in [10] was above 100 µM throughout.
With `CN1C(=O)N(C)C2C1NN=c1s/c(=C\c3ccc(Cl)cc3Cl)c(=O)n12` (centres undefined), the GI50 is 0.339 µM in [1]; 0.754 µM in test [2]; 0.0862 µM in test [3]; 0.364 µM in test [4]; 0.406 µM in [5]; 0.264 µM in test [6]. Besides, the GI50 in [7] was 0.131 µM; in test [8] it was 0.425 µM; in test [9], 0.167 µM; in [10] it was 1.21 µM. In addition, the TGI in [1] is above 100 µM; in test [2] it was above 100 µM; in test [3], 0.925 µM; in test [4], 16.3 µM; in [5], 79.4 µM; in test [7] it was above 40.2 µM. The TGI in [8] is above 100 µM; in [9], 1.78 µM; in [10], above 81.6 µM.
In the case of `C=CCCCCOc1ccccc1-c1cnc(OCCCCC=C)n1C`, the GI50 was 7.39 µM in test [1]; 3.96 µM in test [2]; 5.23 µM in [3]; 3.22 µM in test [4]; 1.81 µM in test [5]; 2.17 µM in [6]. Besides, the GI50 in test [7] is 2.66 µM; in [8] it was 11 µM; in test [9] it was 3.69 µM; in test [10], 3.63 µM. For the same molecule, the concentration for total growth inhibition (TGI) in test [1] amounted to 38.1 µM; in test [2], 19.7 µM; in [3], 18.2 µM; in test [4] it was 14.1 µM; in test [5], 19.7 µM; in test [6], 7.14 µM. Moreover, the TGI in test [7] stood at 11.8 µM; in test [8] it was 44.1 µM; in test [9] it was 13.7 µM; in test [10] it was 16.4 µM.
Regarding `CCOc1ccc(NC(=O)C(=O)CC(=O)c2c(C)n([O-])c3ccccc3[n+]2=O)cc1`, the TGI in test [1], in test [2], in test [3], in test [4], in test [5] and in test [6] was above 100 µM each time. In addition, the TGI in test [7], in test [8], in test [9] and in test [10] was above 100 µM throughout.
On to `O=C(/C=C/c1cccc2ccccc12)c1ccccc1Cl`, for which the total growth inhibition concentration (TGI) in [1] is 27 µM; in test [2], 43.1 µM; in test [3], 32.4 µM; in [4], 47.3 µM; in [5], 26.4 µM; in [6], 19.4 µM. The TGI in [7] turned out to be 20.9 µM; in test [8], 28.6 µM; in test [9], 30.8 µM; in test [10], 30.2 µM.
Consider `Cc1cc(Cl)ccc1NC(=O)C(=O)Cc1nc2ccccc2o1`, for which the total growth inhibition concentration (TGI) in test [1], in test [2], in test [3], in test [4], in [5] and in test [6] was above 100 µM each time. For the same molecule, the TGI in test [7], in [8], in test [9] and in test [10] was above 100 µM in each case.
Turning to `COc1ccc(/C=C2/N=C(c3ccccc3)N(c3c(C)n(C)n(-c4ccccc4)c3=O)C2=O)cc1OC`, the GI50 in test [1], in test [2], in [3], in test [4], in [5] and in test [6] was above 100 µM each time. Moreover, the GI50 in test [7] is above 100 µM; in test [8] it was above 100 µM; in test [9] it was 51.7 µM; in test [10] it was above 100 µM. In addition, the total growth inhibition concentration (TGI) in test [1], in test [2], in [3], in [4], in test [5] and in [6] was above 100 µM throughout. The concentration for total growth inhibition (TGI) in test [7], in test [8], in [9] and in test [10] was above 100 µM each time.
Turning to `O=C(O)Cc1cc(Cl)ccc1O`, the TGI in test [1], in test [2], in test [3], in [4], in test [5] and in [6] was above 100 µM each time. In addition, the concentration for total growth inhibition (TGI) in test [7], in test [8], in test [9] and in [10] was above 100 µM in each case.
`[Cl][Hg][c]1cc[c]([Hg][Cl])o1`: the GI50 was 3.44 µM in test [1]; 15 µM in test [2]; 1.41 µM in test [3]; 1.66 µM in test [4]; 1.77 µM in test [5]; 2.39 µM in test [6]. In addition, the GI50 in test [7] was 6.4 µM; in test [8] it was 2.78 µM; in test [9], 2.43 µM; in test [10], 1.68 µM. In addition, the total growth inhibition concentration (TGI) in test [1] came out at 15.8 µM; in [2], 77.6 µM; in [3] it was 2.92 µM; in test [4], 7.34 µM; in [5] it was 3.52 µM; in [6], 7.03 µM. Also, the total growth inhibition concentration (TGI) in [7] is 20.7 µM; in [8], 28.1 µM; in test [9] it was 9.6 µM; in test [10], 3.37 µM.
Turning to `N#CC(C(=O)C(=O)C(C#N)c1ccc(Br)cc1)c1ccc(Br)cc1` (centres undefined), the concentration for total growth inhibition (TGI) was 30.7 µM in test [1]; 33.1 µM in test [2]; 9.01 µM in test [3]; above 100 µM in [4]; 26.4 µM in test [5]; 20.6 µM in test [6]. Moreover, the TGI in [7] was 29.5 µM; in test [8] it was 24.6 µM; in test [9], 27.5 µM; in test [10] it was 27.7 µM.
In the case of `CCOC(=O)C(Cc1ccc(CCCC(=O)NCCC(=O)Nc2ccc3nc(C)sc3c2)cc1)C(=O)OCC`, the GI50 is above 100 µM in test [1]; above 100 µM in test [2]; 36.4 µM in test [3]; 21.1 µM in test [4]; 55.6 µM in test [5]; 23.7 µM in test [6]. Moreover, the GI50 was 45.8 µM in [7], 53.7 µM in test [8], 15.4 µM in [9] and 28.3 µM in [10]. Further, the TGI in test [1] was above 100 µM; in test [2] it was above 100 µM; in test [3], above 100 µM; in test [4], 53.4 µM; in test [5] it was above 100 µM; in test [6], 64.7 µM. Besides, the concentration for total growth inhibition (TGI) was above 100 µM in test [7], above 100 µM in test [8], 29.2 µM in test [9] and above 84.4 µM in test [10].

Source of the values: PubChem BioAssay (NCI).
